PubChem BioAssay (NCI)
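Tested at 5 concentrations; 48 h exposure; 96-well plates; endpoints linearly interpolated, else capped at highest concentration. GI50 is the concentration that inhibits growth by half. At the TGI there is no net growth.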

How the values were obtained:
Assay in all cases: NCI anticancer screen, dose series, 48 h
[1] = test system: K-562 leukemia
[2] = test system: UACC-62 melanoma
[3] = test system: OVCAR-3 ovarian
[4] = test system: KM12 colon
[5] = test system: HOP-92 NSCLC
[6] = test system: A549 NSCLC
[7] = test system: SN12C renal
[8] = test system: A498 renal
[9] = test system: PC-3 prostate
[10] = test system: MDA-MB-435

SMILES | TGI [1] | TGI [2] | TGI [3] | TGI [4] | TGI [5] | TGI [6] | TGI [7] | TGI [8] | TGI [9] | GI50 [1] | GI50 [2] | GI50 [3] | GI50 [4] | GI50 [5] | GI50 [6] | GI50 [7] | GI50 [10] | TGI [10] | GI50 [9]
O=C(n1c2ccccc2c2n[nH]c(=S)nc21)C(F)(F)F | > 100 µM | > 100 µM | > 100 µM | > 100 µM | > 100 µM | > 100 µM | > 100 µM |  |  |  |  |  |  |  |  |  |  |  | 
Cc1cccc(NC(=O)c2c(N)[n+]([O-])c3ccccc3[n+]2[O-])c1 | > 100 µM |  | 29.1 µM | 30.3 µM | 29.5 µM | 34.6 µM | 17 µM | 29.8 µM |  |  |  |  |  |  |  |  |  |  | 
Cc1cc(NS(=O)(=O)c2ccc(NC(=O)c3ccc(Cl)c4c(Nc5ccc(S(=O)(=O)Nc6cc(C)on6)cc5)c5ccccc5nc34)cc2)no1 | 64.3 µM | 34.3 µM | 33.4 µM | 44.3 µM | 46.2 µM | 62.4 µM | 41.7 µM | 47.4 µM |  |  |  |  |  |  |  |  |  |  | 
COc1ccc(-c2cc(=O)c3c(O)c(O)c(OC)cc3o2)cc1O | > 100 µM | > 100 µM | > 100 µM | > 100 µM | > 100 µM | > 100 µM | > 100 µM | > 100 µM |  |  |  |  |  |  |  |  |  |  | 
COc1ccc2c(=O)c(-c3cc(OC)c(OC)cc3OC)coc2c1 | > 100 µM | > 100 µM | 15.3 µM | > 100 µM |  | > 100 µM | > 100 µM | > 100 µM | > 100 µM |  |  |  |  |  |  |  |  |  | 
CCOC(=O)c1ccc(N=Cc2ccc(N(CCC#N)S(=O)(=O)c3ccccc3)cc2C)cc1 | > 100 µM | > 100 µM | > 100 µM | > 100 µM |  | > 100 µM | > 100 µM | > 100 µM |  |  |  |  |  |  |  |  |  |  | 
C=CCCC(O)c1cc(C)c(O)c(C)c1 (stereo not drawn) | > 100 µM | > 100 µM | > 100 µM | > 100 µM |  | > 100 µM | > 100 µM | > 100 µM |  |  |  |  |  |  |  |  |  |  | 
COC(=O)NC1(NC(=O)OC)NC(=O)c2ccccc2N1 | > 100 µM | > 100 µM | > 100 µM | > 100 µM |  | > 100 µM | > 100 µM | > 100 µM | > 100 µM |  |  |  |  |  |  |  |  |  | 
CCCCC[C@@H]1CCCC2NC(CCCCCO[Si](c3ccccc3)(c3ccccc3)C(C)(C)C)CCC21 (stereo partly drawn) | 20.9 µM | 34.9 µM | 30.7 µM | 25.4 µM | 22.8 µM | 33.9 µM | 28.4 µM | 31.9 µM |  |  |  |  |  |  |  |  |  |  | 
O=C(NCCCN1CCN(CCCNC(=O)c2cccc3ccccc23)CC1)c1cccc2ccccc12 | > 100 µM | > 100 µM | > 100 µM | > 100 µM | 21.3 µM | > 100 µM | > 100 µM | > 100 µM |  |  |  |  |  |  |  |  |  |  | 
CC(C)(C)c1cc(C2c3cc4c(cc3OC(O)(CO)C2C(=O)O)OCO4)cc(C(C)(C)C)c1O (stereo not drawn) (tested in a mixture with another compound) | 29.6 µM | 18.8 µM | 18.9 µM |  | 43.7 µM | 48.1 µM | 31 µM |  |  |  |  |  |  |  |  |  |  |  | 
CC(=O)/C=C1\CC(=O)N(C)c2ccccc2N1 | > 100 µM | > 100 µM | > 100 µM | > 100 µM | > 100 µM | > 100 µM | > 100 µM |  |  |  |  |  |  |  |  |  |  |  | 
Cn1c(=O)nc2n(-c3ccc(Br)cc3)c3ccccc3nc-2c1=O | 24 µM | 3.01 µM | 7.6 µM | 36.8 µM |  | 15.1 µM | 17.9 µM | 26.9 µM |  |  |  |  |  |  |  |  |  |  | 
CCCC(=O)Oc1ccc(/C(=C(\C)c2ccc(Cl)cc2)c2ccc(OCCN(CC)CC)cc2)cc1 | 5.09 µM | 4.04 µM | 21.4 µM | 10.7 µM | 23.4 µM | 6.91 µM | 18.1 µM |  | 14.1 µM | 2.08 µM | 2.06 µM | 6.98 µM | 3.05 µM | 7.76 µM | 2.58 µM | 4.55 µM | 1.78 µM | 3.68 µM | 0.56 µM
O=c1[nH]c2nc3ccccc3c(=O)n2nc1Cc1ccccc1 | > 100 µM | > 100 µM | > 100 µM | > 100 µM |  | > 100 µM | > 100 µM |  |  |  |  |  |  |  |  |  |  |  | 
O=C(c1ccccc1)c1nc2c(Cl)ccc(Cl)c2cc1C(Br)Br | 1.77 µM | 3.01 µM | 3.15 µM | 2.55 µM |  | 13.4 µM |  |  |  |  |  |  |  |  |  |  |  |  | 
CC(C)(C)OC(=O)NCCCCCCCCCn1c2c(c3ccccc3c1=O)C(=O)c1ccccc1-2 | > 100 µM | 40.7 µM | > 100 µM | > 100 µM | 41.6 µM | > 100 µM | > 100 µM |  | > 100 µM | > 100 µM | 17.3 µM | 29.2 µM | > 100 µM | 14.6 µM | > 100 µM | 76.8 µM | > 100 µM | > 100 µM | > 100 µM
